Laboratory results taken from patent US6274568A, “Compounds for altering cell surface sialic acids and methods of use therefor” (priority 1999, dated 2001).
“Also recorded” adds a separate entry of the source.

Tests used:
[1] = tested on: NG108-15 cells; assay: Uptake of mannosamine precursors and conversion to sialic acids (precursor pool, gangliosides, glycoproteins) in NG108-15 cells, HPLC; format: cell-based, mouse neuroblastoma/rat glioma hybrid
Procedure: (§1) Cells were harvested using hypertonic Ca^2+ - and Mg^2+ -free phosphate-buffered saline containing 1 mM EDTA, collected by centrifugation, and homogenized in ice-cold water using a Potter-Elvehjem glass/Teflon homogenizer. Methanol (2.6 volumes) was added, the suspension mixed and brought to ambient temperature, then chloroform (1.3 volumes, based on the original homogenate) was added and the suspension mixed vigorously. The suspension was centrifuged 30 min at 2,000×g. After collecting the supernatant, the pellet (containing precipitated proteins) was resuspended in water or concentrated ammonium hydroxide and a portion was used for protein assay (BCA, Pierce, Rockford, Ill.). The supernatant was partitioned by adjusting the chloroform-methanol-water ratio to 4:8:5.6 by addition of water, mixing thoroughly, and centrifuging as above. The upper phase was collected and a portion was subjected to reverse phase chromatography, using Sep-Pak C18 cartridges (Waters, Milford, Mass.), to isolate gangliosides (Schnaar, Methods Enzymol. 230:371, 1994).
(§2) To quantify and identify sialic acids, a portion of resolublized protein, organic/aqueous soluble pool, or reverse-phase purified gangliosides was evaporated to dryness in a 500-μl polypropylene tube and 20 μl of 0.1 M HCl/0.25 M NaCl was added. One Ampliwax bead (Perkin Elmer Corp, Foster City, Calif.) per reaction was added to block evaporation, and the sample hydrolyzed for 3 h at 80° C. Released sialic acids were analyzed by injecting an aliquot (1-10 μl) onto a Dionex high pressure liquid chromatography system (Dionex Corporation, Sunnyvale, Calif.) using a HPIC-AS6 column and a pulsed amperometric detector. Elution solutions were: A, 0.75 mM NaOH; B, 200 mM NaOH; and C, 400 mM sodium acetate in 50 mM NaOH. NeuAc and NeuPr were resolved by elution with 40% A, 50% B, 10% C for 15 min at 1 ml/min. NeuGc was resolved in separate injections using step gradient elution: 0-1.8 min, 18% A, 50% B, 32% C; 2-10 min, 40% B, 60% C. Sialic acids were identified by comparison of their elution time with those of standard NeuAc, NeuPr and NeuGc and were quantified in comparison to a standard curve of commercial NeuAc (for NeuAc and NeuPr) or NeuGc.
(§3) To confirm that the quantified peaks represented sialic acids, 10 μl of acid hydrolysates were treated with 1 μl of 1 M sodium phosphate (pH 7.2) and 10 μl of 0.1 M NaOH. Neutralized samples were incubated at 37° C. for 2 h with or without 0.9 U of N-acetylneuraminic acid aldolase (Sigma), 32 μM NADH and 0.1 μg lactate dehydrogenase. Sialic acid content in the ganglioside and glycoprotein fractions is expressed per mg of total cell protein. Precursor pool sialic acid (sialic acid plus CMP-sialic acid) was calculated by subtracting the ganglioside value from the organic/aqueous pool value, both expressed per mg of cell protein.
Sialic acid is biosynthesized from the precursor sugar N-acetylmannosamine (FIG. 2). In the present invention, sialic acids are converted on live neuronal cells from NeuAc, which is a key determinant for MAG binding, to NeuGc, which is non-permissive for MAG binding. A potential NeuGc precursor, N-glycolylmannosamine monoacetate (ManNGcMA, FIG. 1, R1 =H) was tested for its ability to generate altered sialic acids in neuronal and non-neuronal cells. N-propanoylmannosamine (ManNPr) and other N-acyl mannosamine derivatives have been used to modify glycoprotein associated sialic acids to the corresponding N-acylneuraminic acid. N-propanoyl-mannosamine (ManNPr), was used as a positive control. […] Cell pellets were fractioned into lipid associated, protein associated, and intracellular (lipid and cytoplasmic which may consist of oligosaccharide-bound, free, or CMP-activated sialic acid) sialic acids and hydrolyzed to release sialic acid. The hydrolyzed samples were then analyzed by HPLC to determine sialic acid content. […]

[2] = tested on: Jurkat cells; assay: Uptake of mannosamine precursors and conversion to sialic acids in Jurkat cells, HPLC; format: cell-based, human; settings: 20 mM precursor, 48 h
Procedure: as §1, §2, §3
Sialic acid is biosynthesized from the precursor sugar N-acetylmannosamine (FIG. 2). In the present invention, sialic acids are converted on live neuronal cells from NeuAc, which is a key determinant for MAG binding, to NeuGc, which is non-permissive for MAG binding. A potential NeuGc precursor, N-glycolylmannosamine monoacetate (ManNGcMA, FIG. 1, R1 =H) was tested for its ability to generate altered sialic acids in neuronal and non-neuronal cells. N-propanoylmannosamine (ManNPr) and other N-acyl mannosamine derivatives have been used to modify glycoprotein associated sialic acids to the corresponding N-acylneuraminic acid. N-propanoyl-mannosamine (ManNPr), was used as a positive control. Jurkat human lymphoma cells and NG108-15 cells (rodent neuroblastoma/glioma hybrid cells) were incubated in 20 mM synthetic precursor or control precursor (N-acetylmannosamine, ManNAc) for 48 h, then harvested. Cell pellets were fractioned into lipid associated, protein associated, and intracellular (lipid and cytoplasmic which may consist of oligosaccharide-bound, free, or CMP-activated sialic acid) sialic acids and hydrolyzed to release sialic acid. […]

[3] = tested on: Jurkat cells; assay: Morphology and viability of precursor-treated Jurkat cells; format: cell-based, human
Procedure: Jurkat cells were maintained in RPMI Medium 1640 (Gibco Life Technologies, Gaithersburg, Md.) supplemented with 10% fetal bovine serum. Both cell types were cultured at 37° C. in a humidified atmosphere of 90% air/10% CO2. For treatment with sialic acid precursors, mannosamine derivatives were diluted into the appropriate medium and filter sterilized. The growth medium was then replaced and cells were cultured in the presence of the precursor for 24-144 h.

[4] = tested on: NG108-15 cells
Procedure: Cell growth rates were determined in control cultures (.box-solid.), in cultures treated with 0.08 mM (.circle-solid.), 0.25 mM (.smallcircle.), or 1 mM (.quadrature.) ManNGcPA, and in cultures treated with 0.25 mM (.tangle-solidup.) or 1 mM (Δ) glucose pentaacetate.
NG108-15 cells were maintained in Dulbecco's modified Eagle's medium (high glucose formulation) containing 5% iron-enriched calf serum, 100 μM hypoxanthine, 16 μM thymidine, and 5 μM aminopterin. […] Both cell types were cultured at 37° C. in a humidified atmosphere of 90% air/10% CO2. For treatment with sialic acid precursors, mannosamine derivatives were diluted into the appropriate medium and filter sterilized. […] In experiments testing ManNGcPA, all cells (control and experimental) were grown in the presence of 0.5% (v/v) DMSO, the carrier for ManNGcPA.

[5] = tested on: myelin-associated glycoprotein (MAG); settings: cited from earlier work
[6] = tested on: sialoadhesin; settings: cited from earlier work
[7] = tested on: NG108-15 cells; settings: cited from earlier work
[8] = NG108-15, 20 mM precursor, 48 h

CCC(=O)N[C@@H]1C(O)O[C@H](CO)[C@@H](O)[C@@H]1O (stereo partly shown) [ManNPr, N-Propanoylmannosamine, reference compound]
incorporation into gangliosides and glycoproteins as NeuPr [1]: efficiently incorporated | increase in intracellular sialic acid (precursor pool) ([1]; 20 mM precursor, 48 h): 4 fold | increase in total glycoprotein sialic acid ([1]; 20 mM precursor, 48 h): ≈ 1.4 fold | sialic acid precursor pool as NeuPr ([1]; 20 mM precursor, 48 h): > 95% | ganglioside (lipid associated) sialic acid in the form of NeuPr [1, 8]: 70% and ≈ 70% | intracellular sialic acid pool as NeuPr [1, 8]: composed predominantly | levels of intracellular sialic acid [1, 8]: high levels | size of the ganglioside pool [1, 8]: remained relatively constant | levels of intracellular sialic acid ([1]; NG108-15, 20 mM precursor, 48 h, listed as N-propanoylmannosamine): high levels of intracellular sialic acid similar to that observed with N-acetylmannosamine treatment | glycoprotein associated sialic acid in the form of NeuPr [2]: ≈ 50% | intracellular sialic acid pool as NeuPr [2]: composed predominantly | levels of intracellular sialic acid [2]: high levels | lipid associated sialic acid in the form of NeuPr [2]: 33% | levels of intracellular sialic acid ([2]; listed as N-propanoylmannosamine): high levels of intracellular sialic acid similar to that observed with N-acetylmannosamine treatment | alteration of cell morphology or viability [3]: did not seem to alter cell morphology or viability significantly | alteration of cell morphology or viability [4]: did not seem to alter cell morphology or viability significantly

CC(=O)N[C@H]1[C@H]([C@H](O)[C@H](O)CO)OC(O)(C(=O)O)C[C@@H]1O (stereo partly shown) [NeuAc, N-acetylneuraminic acid]
support of MAG binding / recognition [5]: support MAG binding; also recorded: MAG and sialoadhesin bind NeuAc | sialoadhesin binding [6]: MAG and sialoadhesin bind NeuAc

B1: MAG: Myelin associated glycoprotein (MAG), a sialic acid binding lectin and member of the siglec family (protein, UniProt P20916 20-626, looked up)
Myelin-associated glycoprotein: GHWGAWMPSSISAFEGTCVSIPCRFDFPDELRPAVVHGVWYFNSPYPKNYPPVVFKSRTQVVHESFQGRSRLLGDLGLRNCTLLLSNVSPELGGKYYFRGDLGGYNQYTFSEHSVLDIVNTPNIVVPPEVVAGTEVEVSCMVPDNCPELRPELSWLGHEGLGEPAVLGRLREDEGTWVQVSLLHFVPTREANGHRLGCQASFPNTTLQFEGYASMDVKYPPVIVEMNSSVEAIEGSHVSLLCGADSNPPPLLTWMRDGTVLREAVAESLLLELEEVTPAEDGVYACLAENAYGQDNRTVGLSVMYAPWKPTVNGTMVAVEGETVSILCSTQSNPDPILTIFKEKQILSTVIYESELQLELPAVSPEDDGEYWCVAENQYGQRATAFNLSVEFAPVLLLESHCAAARDTVQCLCVVKSNPEPSVAFELPSRNVTVNESEREFVYSERSGLVLTSILTLRGQAQAPPRVICTARNLYGAKSLELPFQGAHRLMWAKIGPVGAVVAFAILIAIVCYITQTRRKKNVTESPSFSAGDNPPVLFSSDFRISGAPEKYESERRLGSERRLLGLRGEPPELDLSYSHSDLGKRPTKDSYTLTEELAEYAEIRVK
neurite outgrowth from NG108-15 cells [7]: inhibited
